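Step 1: Grow cells in 96-well plates. Step 2: Expose to compound for 48 hours at 5 concentrations. Step 3: Interpolate endpoints linearly; if unreached, use highest concentration. At the GI50, growth is halved.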 The source made the active and inactive calls. Rule as the data show it: active = GI50 up to about 1.1 µM and inactive = higher.
Experiments:
Experiment in all cases: inhibition of tumour cell growth, NCI panel, 48 h
CAKI-1 = test system: CAKI-1
COLO 205 = test system: COLO 205
HCC 2998 = test system: HCC 2998
HL-60 = test system: HL-60
HT-29 = test system: HT-29
Hs-578T = test system: Hs-578T
K562 = test system: K562
MDA-MB-435 = test system: MDA-MB-435
NCI-H460 = test system: NCI-H460
NCI/ADR-RES = test system: NCI/ADR-RES
OVCAR-3 = test system: OVCAR-3
OVCAR-5 = test system: OVCAR-5
SF-268 = test system: SF-268
SNB-75 = test system: SNB-75
SR = test system: SR
U-251 = test system: U-251
A498 = test system: A498
HOP-92 = test system: HOP-92
RXF 393 = test system: RXF 393

Measured: GI50

Cc1ncc([N+](=O)[O-])n1CCNC(=O)CCn1ccnc1[N+](=O)[O-]
inactive: CAKI-1 > 100 µM | COLO 205 > 100 µM | HCC 2998 > 100 µM | HL-60 > 100 µM | HT-29 > 100 µM | Hs-578T 66.8 µM | K562 > 100 µM | MDA-MB-435 > 100 µM | NCI-H460 > 100 µM | NCI/ADR-RES > 100 µM | OVCAR-3 > 100 µM | OVCAR-5 > 100 µM | SF-268 > 100 µM | SNB-75 > 100 µM | SR > 100 µM | U-251 > 100 µM

CC(=O)N(O)c1ccc(-c2nc3ccccc3s2)cc1
inactive: A498 35.6 µM | CAKI-1 95.1 µM | COLO 205 > 100 µM | HCC 2998 61.9 µM | HOP-92 64.4 µM | HT-29 46.6 µM | Hs-578T 32.7 µM | K562 > 100 µM | MDA-MB-435 86.9 µM | NCI-H460 46.9 µM | NCI/ADR-RES 28.4 µM | OVCAR-3 52.2 µM | OVCAR-5 > 100 µM | RXF 393 61.8 µM | SF-268 74.6 µM | SNB-75 33 µM | SR > 100 µM | U-251 87.9 µM

CC(C)CC(=O)OC[n+]1cccc(-c2c(COC(=O)NC(C)C)c(COC(=O)NC(C)C)c3n2CCC3)c1
inactive: A498 23.3 µM | CAKI-1 17.2 µM | COLO 205 70.3 µM | HCC 2998 > 100 µM | HOP-92 26.6 µM | HT-29 52.6 µM | Hs-578T 74.1 µM | K562 51.9 µM | MDA-MB-435 > 100 µM | NCI-H460 30.1 µM | NCI/ADR-RES 35.2 µM | OVCAR-3 > 100 µM | OVCAR-5 60.8 µM | RXF 393 33.9 µM | SF-268 29 µM | SNB-75 39.8 µM | SR > 100 µM | U-251 41.5 µM

COc1ccc(C(Nc2ccccn2)c2cc(C(C)(C)C)cc(C(C)(C)C)c2O)cc1 (stereo not given)
inactive: A498 54.8 µM | CAKI-1 39.4 µM | COLO 205 19 µM | HCC 2998 12.3 µM | HOP-92 31.6 µM | HT-29 22 µM | Hs-578T 6.07 µM | K562 55 µM | MDA-MB-435 17.4 µM | NCI-H460 16.7 µM | NCI/ADR-RES 16 µM | OVCAR-3 11.4 µM | OVCAR-5 42 µM | RXF 393 7.74 µM | SF-268 5.65 µM | SNB-75 13.8 µM | SR 10.1 µM | U-251 19.8 µM

O=c1[nH]c2nc3ccccc3c(=O)n2/c1=C/c1ccco1
inactive: CAKI-1 > 100 µM | COLO 205 > 100 µM | HCC 2998 > 100 µM | HL-60 > 100 µM | HOP-92 > 100 µM | HT-29 > 100 µM | Hs-578T > 100 µM | K562 > 100 µM | MDA-MB-435 > 100 µM | NCI/ADR-RES > 100 µM | OVCAR-3 > 100 µM | OVCAR-5 > 100 µM | SF-268 > 100 µM | SNB-75 > 100 µM | SR > 100 µM | U-251 > 100 µM

CC(C)(C)OC(=O)N(O)[C@@H]1CC[C@H](n2cnc3c(N)ncnc32)C1
inactive: A498 > 100 µM | COLO 205 > 100 µM | HCC 2998 > 100 µM | HOP-92 > 100 µM | HT-29 > 100 µM | Hs-578T > 100 µM | K562 > 100 µM | MDA-MB-435 > 100 µM | NCI-H460 > 100 µM | NCI/ADR-RES > 100 µM | OVCAR-3 > 100 µM | OVCAR-5 > 100 µM | RXF 393 > 100 µM | SF-268 > 100 µM | SNB-75 > 100 µM | SR > 100 µM | U-251 > 100 µM

c1ccc(CNCCN2CCNCC2)nc1
inactive: A498 > 100 µM | CAKI-1 > 100 µM | COLO 205 > 100 µM | HOP-92 > 100 µM | HT-29 > 100 µM | Hs-578T > 100 µM | K562 > 100 µM | MDA-MB-435 > 100 µM | NCI-H460 > 100 µM | NCI/ADR-RES > 100 µM | OVCAR-3 > 100 µM | OVCAR-5 > 100 µM | RXF 393 > 100 µM | SF-268 > 100 µM | SNB-75 52 µM | SR > 100 µM | U-251 > 100 µM

CN/N=C(/C=C/c1ccccc1)C(C)C
inactive: CAKI-1 > 100 µM | COLO 205 > 100 µM | HCC 2998 > 100 µM | HL-60 > 100 µM | HT-29 > 100 µM | Hs-578T > 100 µM | K562 > 100 µM | MDA-MB-435 > 100 µM | NCI-H460 > 10 µM | NCI/ADR-RES > 100 µM | OVCAR-3 > 100 µM | OVCAR-5 > 100 µM | RXF 393 > 100 µM | SF-268 > 100 µM | SNB-75 > 100 µM | SR > 100 µM | U-251 > 100 µM

CCCCCCCCCCCCCCCC(=O)OC1C(O)C(O)C(O)C(O)C12CO2 (stereo not given)
inactive: A498 > 100 µM | CAKI-1 13.6 µM | COLO 205 36.3 µM | HCC 2998 71.8 µM | HL-60 15.2 µM | HOP-92 14.3 µM | HT-29 45.4 µM | Hs-578T 31.4 µM | K562 24.7 µM | MDA-MB-435 48.5 µM | NCI-H460 > 100 µM | NCI/ADR-RES 46 µM | OVCAR-3 24.6 µM | OVCAR-5 56 µM | RXF 393 69.2 µM | SF-268 34 µM | SNB-75 20.7 µM | U-251 17.5 µM

CC1=[N+](C)CCN1C
inactive: CAKI-1 > 100 µM | COLO 205 > 100 µM | HCC 2998 > 100 µM | HL-60 > 100 µM | HOP-92 > 100 µM | HT-29 > 100 µM | Hs-578T > 100 µM | K562 > 100 µM | MDA-MB-435 > 100 µM | NCI-H460 > 100 µM | NCI/ADR-RES > 100 µM | OVCAR-3 > 100 µM | OVCAR-5 > 100 µM | RXF 393 > 100 µM | SF-268 > 100 µM | SNB-75 > 100 µM | SR > 100 µM | U-251 > 100 µM

CC(C)CCCC(C)[C@H]1CC[C@H]2N/C(=N/Cc3ccccc3)CCC[C@]12C (stereo not given in full)
inactive: A498 1.95 µM | CAKI-1 2.25 µM | COLO 205 1.42 µM | HL-60 2.11 µM | HOP-92 2.09 µM | HT-29 1.28 µM | Hs-578T 3.37 µM | K562 1.26 µM | MDA-MB-435 1.64 µM | NCI-H460 1.66 µM | NCI/ADR-RES 1.65 µM | OVCAR-3 2.07 µM | RXF 393 1.53 µM | SF-268 2.2 µM | SNB-75 1.83 µM | SR 2.72 µM | U-251 1.78 µM
